From patent US20220325239A1, “CELL CULTURE” (AGENCY FOR SCIENCE, TECHNOLOGY AND RESEARCH, priority 2019, published 2022)

What was measured:
[1] = system: human tumor xenograft; details: oral, 50 mg/kg/12 h or 75 mg/kg/day, mice; cited from earlier work
[2] = system: cellular CDK substrates; details: cited from earlier work
[3] = system: LTR7Y-zsGreen reporter cells; assay: High-throughput small molecule screen for feeder-free maintenance of naïve hESCs (LTR7Y-zsGreen fluorescence); format: cell-based, human; details: 3iL without feeders
Method: 3,000 cells cultured in mTeSR1 (STEMCELL Technologies) or 3iL were seeded per well into 384-well plates (Greiner) coated with 30× Matrigel (Corning) or 30× growth factor reduced Matrigel (Corning) in 45 µl of medium. 4 hours after seeding, cells were treated with anti-cancer and anti-kinase libraries (Selleckchem; kinase inhibitor screening library—customised collection of 273 kinase inhibitors, anti-cancer compound library—customized collection of 349 bioactive compounds). Small molecules were used at 3 different concentrations: 100 nM, 1 μM and 10 μM for each condition. 48 hours after the treatment, culture media was renewed concomitant with a second round of treatment with the compounds. […] Images were processed and fluorescence signal was quantified using Columbus Image Data Storage and Analysis System (PerkinElmer). […] Z-score for zsGreen fluorescence was calculated using formula: z=(X−μ)/s.d. where μ—mean, s.d.—standard deviation of whole population, X−integrated intensity of zsGreen divided by total number of cells. […]
We first ensured the quality of the screen by certifying the absence of intra-plate layout biases (FIG. 8I), proper inter-plate alignment (FIG. 8J) and good correlation between replicates (FIG. 8K). Z-scores were then calculated, and compounds that reproducibly scored above noise (z>2 in at least 2 replicates) were regarded as hits (FIG. 1B, S1L). […]

[4] = system: naïve hESCs; assay: Naïve pluripotency marker expression after short-term supplementation of hits upon feeder withdrawal (qPCR); format: cell-based, human
Text: 3iL and 4 iLA media were supplemented with small molecule compounds at various concentrations for single and combinatory treatments. Small molecules used in the study: Dasatinib (Selleckchem), AZD5438 (TOCRIS), CHIR-98014 (Sigma), Crenolanib (Selleckchem), Saracatinib (Selleckchem), Src Inhibitor-1 (Sigma), Nilotinib (STEMCELL Technologies), Imatinib (STEMCELL Technologies), Dinaciclib (Selleckchem), WH-4-023 (Sigma).
(§1) Total RNA was extracted using TRIzol reagent (Invitrogen) according to manufacturer's protocol followed by DNAase I treatment (Ambion).
(§2) 250-1000 ng of DNAase treated RNA was reverse transcribed using SuperScript II (Invitrogen) and oligo-dT primers (Invitrogen) according to manufacturer's instructions. Reactions were performed in final volume of 20μ1. cDNA was diluted before qPCR analysis.
qPCR was performed using KAPA SYBR FAST master mix (KAPA Biosystem) following standard procedures. qPCR reactions were performed in biological duplicates or triplicates in 384-well plates on the ViiA™ 7 Real-Time PCR System (Life Technologies). Two technical replicates were carried out for each qPCR reaction and data was normalised to GAPDH. The relative abundance of transcripts was calculated using ΔΔC(T) method. […]

[5] = system: FINE cells; assay: Withdrawal or replacement of AZD5438 / Dasatinib in FINE culture; format: cell-based, human; details: for morphology after withdrawal from FINE: withdrawal for 3 passages; for sustaining feeder-free naïve hESCs when replacing Dasatinib in FINE: 2 passages
Text: FIG. 4A is a diagram showing brightfield and immunofluorescence staining of KLF4, TFE3 and KLF17 in FINE culture after withdrawal of AZD, Dasa or both for 3 passages. Scale bar=50 μm.
FIG. 4B is a diagram showing quantification of fraction of nuclei positive for naïve-associated transcription factors in hESCs cultured in FINE after withdrawal of AZD, Dasa or both for 3 passages. Mean±SD of three independent experiments.
FIG. 4C is a diagram showing expression of blastocyst-associated transcripts in hESCs cultured in FINE after withdrawal of AZD, Dasa or both for 2 passages. Mean±SD of three independent qPCR experiments.
FIG. 4D and FIG. 4E are diagrams showing expression of blastocyst-associated transcripts in hESCs cultured in FINE after (D) replacement of Dasa with other Src and Bcr-Abl inhibitors or (E) replacement of AZD with Dinaciclib (in H9 line) for 2 passages. Mean±SD of three independent qPCR experiments.
Therefore, we wanted to test if both are also important for the maintenance of naivety in FINE.

[6] = system: human cancer cultures; details: broad spectrum of human cancer cultures; cited from earlier work
[7] = system: H9 cells; assay: Karyotyping / cytogenetic analysis; format: cell-based, human; details: PD0325901 reduced from 1 μM to 0.3 μM
Method: FIG. 7B is a diagram showing summary of cytogenetic analysis of H9 cells (top) under various naïve culture conditions (rows) and passage numbers (columns). Representative karyotypes at various passage numbers in FINE (bottom).
Various hESCs lines were seeded into glass cover slip slides as single cells. Karyotyping service including colcemid treatment and G-band analysis was outsourced with Parkway Laboratory Services.

[8] = system: hESCs; assay: Expression of naïve / blastocyst / 8-cell markers under culture conditions (qPCR, immunofluorescence); format: cell-based, human; details: PD0325901 reduced from 1 μM to 0.3 μM, H9
Method: as §1, §2
qPCR was performed using KAPA SYBR FAST master mix (KAPA Biosystem) following standard procedures. qPCR reactions were performed in biological duplicates or triplicates in 384-well plates on the ViiA™ 7 Real-Time PCR System (Life Technologies). Two technical replicates were carried out for each qPCR reaction and data was normalised to GAPDH. The relative abundance of transcripts was calculated using ΔΔC(T) method.
Before fixation with 4% formaldehyde (Sigma) cells were washed with PBS (Gibco) in tissue culture plates (Falcon) for 30 minutes at room temperature. Permeabilization was performed with 1% of Triton-X 100 in PBS followed by blocking step performed in blocking buffer (blocking buffer—8% FBS in PBS-T (PBS-T 1% Tween in PBS)) each for 30 minutes at room temperature. Cells were incubated with primary antibodies, diluted in blocking buffer, overnight at 4° C. with gentle agitation. […]

[9] = system: hESC; assay: Adaptation and survival of feeder-free hESCs in 4iLA supplemented with chemical combinations (C1-C21); format: cell-based, human; details: condition 19 background
Text: FIG. 2C is a diagram showing relative survival of hESC culture under 4 iLA supplemented with different chemical combinations conditions (C1-C21) over 9 passages without feeders. 4 iLA was included as control.
We next sought to find a condition that enables stable naïve culture by adapting feeder-free primed hESCs onto media supplemented by one or more of the hits at various concentrations (FIG. 2C, Table E2, below).

Cc1ncc(-c2ccnc(Nc3ccc(S(C)(=O)=O)cc3)n2)n1C(C)C [AZD5438, 4-[2-Methyl-1-(1-methylethyl)-1H-imidazol-5-yl]-N-[4-(methylsulfonyl)phenyl]-2-pyrimidinamine]
efficacy against human tumor xenograft growth [1]: efficacious
inhibition of cellular CDK substrates phosphorylation [2]: effectively inhibits
outcome of the screen (hit) [3]: identified novel regulators of naïve pluripotency
effect on downregulation of naïve pluripotency markers including LTR7Y ([4]; 3iL, RNA after 6 days): consistently attenuated downregulation
morphology after withdrawal from FINE [5]: caused dispersal of the compact morphology
antiproliferation activity [6]: displays antiproliferation activity

Cc1nc(Nc2ncc(C(=O)Nc3c(C)cccc3Cl)s2)cc(N2CCN(CCO)CC2)n1.O [Dasatinib, N-(2-chloro-6-methylphenyl)-2-[[6-[4-(2-hydroxyethyl)-1-piperazinyl]-2-methyl-4-pyrimidinyl]amino]-5-thiazole carboxamide monohydrate]
outcome of the screen (hit) [3]: identified novel regulators of naïve pluripotency
effect on downregulation of naïve pluripotency markers ([4]; 4iLA, RNA after 12 days): had the same effect
loss of naivety upon withdrawal from FINE ([5]; compared with AZD5438 withdrawal): more pronounced effect
morphology after withdrawal from FINE [5]: caused dispersal of the compact morphology

Cc1ccc(NC(=O)c2ccc(CN3CCN(C)CC3)cc2)cc1Nc1nccc(-c2cccnc2)n1 [Imatinib]
sustaining feeder-free naïve hESCs when replacing Dasatinib in FINE [5]: failed to sustain

Cc1cn(-c2cc(NC(=O)c3ccc(C)c(Nc4nccc(-c5cccnc5)n4)c3)cc(C(F)(F)F)c2)cn1 [Nilotinib]
sustaining feeder-free naïve hESCs when replacing Dasatinib in FINE [5]: failed to sustain

O=C(NOC[C@H](O)CO)c1ccc(F)c(F)c1Nc1ccc(I)cc1F [PD0325901, N-[(2R)-2,3-dihydroxypropoxy]-3,4-difluoro-2-(2-fluoro-4-iodoanilino)benzamide]
effect of lowered concentration in FINE on acquisition of chromosomal abnormalities [7]: further delayed acquisition of chromosomal abnormalities
effect of lowered concentration in FINE on naïve pluripotent marker expression [8]: slight adverse effect

COc1cc2ncnc(Nc3ccc(Oc4ccccc4)cc3)c2cc1OC [SRCi]
sustaining feeder-free naïve hESCs when replacing Dasatinib in FINE [5]: failed to sustain

COc1ccc(N(C(=O)Oc2c(C)cccc2C)c2ccnc(Nc3ccc(N4CCN(C)CC4)cc3)n2)c(OC)c1 [WH-4-023]
sustaining feeder-free naïve hESCs when replacing Dasatinib in FINE [5]: failed to sustain
requirement for adaptation and maintenance of feeder-free naïve cells [9]: dispensable
